Assay results reported in PubChem BioAssay AID2060488 (Molecular Pharmacology Branch, DTP, NCI, 2025).

Test system: 966289-007-R4-J1-PDC complex spheroid viability
Experiment: Anticancer human tumor 966289-007-R4-J1-PDC patient-derived pancreatic adenocarcinoma cell line growth inhibition [GQUAD]
Details: for IC50: curve of first compound; for viability, T/C: stronger effect = lower value
Procedure, shortened: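 Viability of tumor cells grown as complex spheroids with endothelial and stromal cells, exposed to drug combinations. Top concentration at or near clinical Cmax (else 10 microM), diluted in half-log increments.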

[1] = second compound 0.0316 µM, first compound 0.0316 µM
[2] = second compound 0.0316 µM, first compound 0.1 µM
[3] = second compound 0.0316 µM, first compound 0.316 µM
[4] = second compound 0.0316 µM, first compound 1 µM
[5] = second compound 0.0316 µM, first compound 3.16 µM
[6] = second compound 0.0316 µM, first compound 10 µM
[7] = second compound 0.1 µM, first compound 0.0316 µM
[8] = second compound 0.1 µM, first compound 0.1 µM
[9] = second compound 0.1 µM, first compound 0.316 µM
[10] = second compound 0.1 µM, first compound 1 µM
[11] = second compound 0.1 µM, first compound 3.16 µM
[12] = second compound 0.1 µM, first compound 10 µM
[13] = second compound 0.316 µM, first compound 0.0316 µM
[14] = second compound 0.316 µM, first compound 0.1 µM
[15] = second compound 0.316 µM, first compound 0.316 µM
[16] = second compound 0.316 µM, first compound 1 µM
[17] = second compound 0.316 µM, first compound 3.16 µM
[18] = second compound 0.316 µM, first compound 10 µM
[19] = second compound 1 µM, first compound 0.0316 µM
[20] = second compound 1 µM, first compound 0.1 µM
[21] = second compound 1 µM, first compound 0.316 µM
[22] = second compound 1 µM, first compound 1 µM
[23] = second compound 1 µM, first compound 3.16 µM
[24] = second compound 1 µM, first compound 10 µM
[25] = second compound 3.16 µM, first compound 0.0316 µM
[26] = second compound 3.16 µM, first compound 0.1 µM
[27] = second compound 3.16 µM, first compound 0.316 µM
[28] = second compound 3.16 µM, first compound 1 µM
[29] = second compound 3.16 µM, first compound 3.16 µM
[30] = second compound 3.16 µM, first compound 10 µM
[31] = second compound 10 µM, first compound 0.0316 µM
[32] = second compound 10 µM, first compound 0.1 µM
[33] = second compound 10 µM, first compound 0.316 µM
[34] = second compound 10 µM, first compound 1 µM
[35] = second compound 10 µM, first compound 3.16 µM
[36] = second compound 10 µM, first compound 10 µM
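Note: spheroids exposed to the agents for seven days before readout.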
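Throughout, for viability, T/C: percent viability relative to DMSO vehicle control wells taken as 100%.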

Which IC50 (second compound 0.0316 µM) does the source give for `CC1COCCN1c1cc(-c2ccnn2C)c2ccnc(-c3ccn[nH]3)c2n1` (stereo unspecified) + CN(C)c1ccc(Nc2c3ccc(NC(=O)CCN4CCCC4)cc3nc3cc(NC(=O)CCN4CCCC4)ccc23)cc1 here?
The IC50 was 213 nM.

What about the IC50 (second compound 0.1 µM) of the same compound?
Its IC50 is 228 nM.

And the IC50 (second compound 0.316 µM)?
The IC50 was 214 nM.

What about the IC50 (second compound 1 µM) of the same compound?
The IC50 was 240 nM.

What about the IC50 (second compound 3.16 µM) of the same compound?
The IC50 was 217 nM.

What about the IC50 (second compound 10 µM) of the same compound?
The IC50 was 143 nM.

And the viability, T/C [1]?
Its viability, T/C is 113%.

And the viability, T/C [2]?
The viability, T/C was 88.9%.

What about the viability, T/C [3] of the same compound?
Its viability, T/C is 29.1%.

What about the viability, T/C [4] of the same compound?
Its viability, T/C is 11.2%.

What about the viability, T/C [5] of the same compound?
Its viability, T/C is 6.12%.

And the viability, T/C [6]?
Its viability, T/C is 3.97%.

What about the viability, T/C [7] of the same compound?
Its viability, T/C is 113%.

What about the viability, T/C [8] of the same compound?
Its viability, T/C is 97.5%.

And the viability, T/C [9]?
Its viability, T/C is 30.8%.

And the viability, T/C [10]?
The viability, T/C was 10.2%.

And the viability, T/C [11]?
Its viability, T/C is 5.52%.

And the viability, T/C [12]?
The viability, T/C was 4.49%.

What about the viability, T/C [13] of the same compound?
Its viability, T/C is 108%.

And the viability, T/C [14]?
The viability, T/C was 89.6%.

And the viability, T/C [15]?
Its viability, T/C is 29.3%.

And the viability, T/C [16]?
Its viability, T/C is 11%.

What about the viability, T/C [17] of the same compound?
The viability, T/C was 5.87%.

What about the viability, T/C [18] of the same compound?
The viability, T/C was 4.36%.

And the viability, T/C [19]?
The viability, T/C was 107%.

What about the viability, T/C [20] of the same compound?
The viability, T/C was 96.2%.

What about the viability, T/C [21] of the same compound?
The viability, T/C was 35.1%.

And the viability, T/C [22]?
The viability, T/C was 10.6%.

What about the viability, T/C [23] of the same compound?
The viability, T/C was 4.68%.

And the viability, T/C [24]?
Its viability, T/C is 4.37%.

What about the viability, T/C [25] of the same compound?
Its viability, T/C is 110%.

What about the viability, T/C [26] of the same compound?
The viability, T/C was 94.3%.

And the viability, T/C [27]?
Its viability, T/C is 28.2%.

And the viability, T/C [28]?
The viability, T/C was 10.7%.

And the viability, T/C [29]?
The viability, T/C was 6.99%.

What about the viability, T/C [30] of the same compound?
Its viability, T/C is 5.79%.

What about the viability, T/C [31] of the same compound?
The viability, T/C was 103%.

And the viability, T/C [32]?
The viability, T/C was 64.3%.

And the viability, T/C [33]?
The viability, T/C was 18.2%.

What about the viability, T/C [34] of the same compound?
The viability, T/C was 9.04%.

And the viability, T/C [35]?
Its viability, T/C is 5.74%.

And the viability, T/C [36]?
Its viability, T/C is 4.94%.

With `COc1cc(C2c3cc4c(cc3C(OC3OC5COC(C)OC5C(O)C3O)C3COC(=O)C23)OCO4)cc(OC)c1O` (stereo unspecified) + Cc1[nH]c2ccc(F)cc2c1-c1nc2c3cccnc3c3ncccc3c2[nH]1 as the compound, how does the IC50 (second compound 0.0316 µM) read?
The IC50 was 321 nM.

And the IC50 (second compound 0.1 µM)?
Its IC50 is 273 nM.

What about the IC50 (second compound 0.316 µM) of the same compound?
Its IC50 is 312 nM.

And the IC50 (second compound 1 µM)?
The IC50 was 303 nM.

What about the IC50 (second compound 3.16 µM) of the same compound?
The IC50 was 252 nM.

What about the IC50 (second compound 10 µM) of the same compound?
The IC50 was 220 nM.

And the viability, T/C [1]?
The viability, T/C was 107%.

And the viability, T/C [2]?
The viability, T/C was 104%.

And the viability, T/C [3]?
Its viability, T/C is 50.5%.

And the viability, T/C [4]?
Its viability, T/C is 4.72%.

And the viability, T/C [5]?
The viability, T/C was 2.07%.

What about the viability, T/C [6] of the same compound?
The viability, T/C was 0.7%.

And the viability, T/C [7]?
The viability, T/C was 107%.

What about the viability, T/C [8] of the same compound?
The viability, T/C was 105%.

What about the viability, T/C [9] of the same compound?
Its viability, T/C is 41.7%.

And the viability, T/C [10]?
Its viability, T/C is 7.49%.

And the viability, T/C [11]?
Its viability, T/C is 1.48%.

What about the viability, T/C [12] of the same compound?
The viability, T/C was 0.65%.

And the viability, T/C [13]?
The viability, T/C was 102%.

And the viability, T/C [14]?
Its viability, T/C is 112%.

And the viability, T/C [15]?
Its viability, T/C is 49.2%.

What about the viability, T/C [16] of the same compound?
Its viability, T/C is 7.18%.

And the viability, T/C [17]?
Its viability, T/C is 1.57%.

What about the viability, T/C [18] of the same compound?
Its viability, T/C is 0.55%.

What about the viability, T/C [19] of the same compound?
Its viability, T/C is 99.4%.

What about the viability, T/C [20] of the same compound?
The viability, T/C was 110%.

What about the viability, T/C [21] of the same compound?
Its viability, T/C is 48%.

And the viability, T/C [22]?
Its viability, T/C is 7.65%.

And the viability, T/C [23]?
The viability, T/C was 1.61%.

And the viability, T/C [24]?
The viability, T/C was 0.65%.

What about the viability, T/C [25] of the same compound?
Its viability, T/C is 108%.

And the viability, T/C [26]?
Its viability, T/C is 99.6%.

What about the viability, T/C [27] of the same compound?
Its viability, T/C is 37.6%.

And the viability, T/C [28]?
The viability, T/C was 6.91%.

What about the viability, T/C [29] of the same compound?
The viability, T/C was 2.31%.

What about the viability, T/C [30] of the same compound?
Its viability, T/C is 0.77%.

What about the viability, T/C [31] of the same compound?
Its viability, T/C is 101%.

What about the viability, T/C [32] of the same compound?
The viability, T/C was 97.2%.

What about the viability, T/C [33] of the same compound?
Its viability, T/C is 28.1%.

What about the viability, T/C [34] of the same compound?
The viability, T/C was 3.87%.

What about the viability, T/C [35] of the same compound?
The viability, T/C was 1.57%.

And the viability, T/C [36]?
Its viability, T/C is 0.58%.

How did the IC50 (second compound 0.0316 µM) turn out when `Cc1cccc(N(C)C(=O)C2C(O)CCN2c2nc(C)cc(C(F)(F)F)c2C#N)c1` (stereo unspecified) + CN(C)c1ccc(Nc2c3ccc(NC(=O)CCN4CCCC4)cc3nc3cc(NC(=O)CCN4CCCC4)ccc23)cc1 was run?
The IC50 was over 10000 nM.

What about the IC50 (second compound 0.1 µM) of the same compound?
The IC50 was over 10000 nM.

What about the IC50 (second compound 0.316 µM) of the same compound?
The IC50 was over 10000 nM.

What about the IC50 (second compound 1 µM) of the same compound?
The IC50 was over 10000 nM.

And the IC50 (second compound 3.16 µM)?
Its IC50 is over 10000 nM.

What about the IC50 (second compound 10 µM) of the same compound?
The IC50 was 1720 nM.

And the viability, T/C [1]?
Its viability, T/C is 107%.

And the viability, T/C [2]?
Its viability, T/C is 94.7%.

And the viability, T/C [3]?
The viability, T/C was 106%.

And the viability, T/C [4]?
The viability, T/C was 95.8%.

And the viability, T/C [5]?
Its viability, T/C is 101%.

And the viability, T/C [6]?
The viability, T/C was 99.3%.

What about the viability, T/C [7] of the same compound?
Its viability, T/C is 107%.

And the viability, T/C [8]?
The viability, T/C was 98.5%.

What about the viability, T/C [9] of the same compound?
The viability, T/C was 103%.

And the viability, T/C [10]?
The viability, T/C was 99.7%.

And the viability, T/C [11]?
Its viability, T/C is 102%.

And the viability, T/C [12]?
Its viability, T/C is 107%.

And the viability, T/C [13]?
Its viability, T/C is 95.8%.

And the viability, T/C [14]?
Its viability, T/C is 100%.

And the viability, T/C [15]?
The viability, T/C was 105%.

And the viability, T/C [16]?
The viability, T/C was 101%.

What about the viability, T/C [17] of the same compound?
Its viability, T/C is 102%.

And the viability, T/C [18]?
Its viability, T/C is 100%.

And the viability, T/C [19]?
The viability, T/C was 102%.

What about the viability, T/C [20] of the same compound?
The viability, T/C was 105%.

What about the viability, T/C [21] of the same compound?
The viability, T/C was 107%.

What about the viability, T/C [22] of the same compound?
The viability, T/C was 101%.

What about the viability, T/C [23] of the same compound?
Its viability, T/C is 99.6%.

What about the viability, T/C [24] of the same compound?
The viability, T/C was 109%.

And the viability, T/C [25]?
The viability, T/C was 104%.

What about the viability, T/C [26] of the same compound?
The viability, T/C was 106%.

And the viability, T/C [27]?
Its viability, T/C is 101%.

And the viability, T/C [28]?
The viability, T/C was 97.3%.

What about the viability, T/C [29] of the same compound?
The viability, T/C was 102%.

And the viability, T/C [30]?
Its viability, T/C is 104%.

What about the viability, T/C [31] of the same compound?
Its viability, T/C is 105%.

And the viability, T/C [32]?
The viability, T/C was 103%.

What about the viability, T/C [33] of the same compound?
Its viability, T/C is 96.1%.

What about the viability, T/C [34] of the same compound?
The viability, T/C was 72.2%.

And the viability, T/C [35]?
Its viability, T/C is 25.2%.

What about the viability, T/C [36] of the same compound?
Its viability, T/C is 7.13%.
